Source: ChEMBL document CHEMBL1201862, “PubChem BioAssay data set” (2004)
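Tested at 5 concentrations; 48 h exposure; 96-well plates; endpoints linearly interpolated, else capped at highest concentration. GI50 is the concentration that inhibits growth by half.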 The source made the active and inactive calls. No stated cut-off is given here; in the data, active = GI50 up to about 1.1 µM and inactive = higher.

What was measured:
Assay in all cases: growth of human tumour cells (NCI), 48 h
[1] = system: NCI-H522
[2] = system: OVCAR-3
[3] = system: EKVX
[4] = system: CCRF-CEM
[5] = system: MDA-N
[6] = system: BT-549
[7] = system: SF-295
[8] = system: U-251
[9] = system: SK-MEL-5
[10] = system: SK-OV-3
[11] = system: A498
[12] = system: SK-MEL-2
[13] = system: HCT-15
[14] = system: HOP-92
[15] = system: COLO 205
[16] = system: OVCAR-5
[17] = system: NCI-H23
[18] = system: MDA-MB-435
[19] = system: DU-145
[20] = system: SK-MEL-28
[21] = system: TK-10
[22] = system: NCI-H226
[23] = system: ACHN
[24] = system: SR
[25] = system: A549
[26] = system: HCC 2998
[27] = system: HOP-62
[28] = system: MCF7
[29] = system: UACC-257
[30] = system: K562
[31] = system: SN12C
[32] = system: HCT-116
[33] = system: LOX IMVI
[34] = system: NCI-H460
[35] = system: T47D
[36] = system: SNB-19
[37] = system: M14
[38] = system: UO-31
[39] = system: NCI/ADR-RES
[40] = system: SW-620
[41] = system: KM12
[42] = system: OVCAR-4
[43] = system: RXF 393
[44] = system: UACC-62
[45] = system: Malme-3M
[46] = system: 786-0
[47] = system: CAKI-1
[48] = system: MDA-MB-231
[49] = system: PC-3
[50] = system: MOLT-4
[51] = system: SF-268
[52] = system: HL-60
[53] = system: RPMI-8226
[54] = system: SF-539
[55] = system: IGROV-1
[56] = system: SNB-75
[57] = system: HT-29
[58] = system: OVCAR-8

Measured: GI50

COc1ccccc1N1C(=O)/C(=C\c2cccc(Oc3ccccc3)c2)S(=O)(=O)C1c1ccccc1 (centres undefined)
32.4 µM: [13]
inactive: [1] 22.5 µM | [2] 38.7 µM | [3] 10.5 µM | [4] 33.9 µM | [5] 36.4 µM | [6] 26.6 µM | [7] 81.8 µM | [8] 53.6 µM | [9] 21.5 µM | [10] > 100 µM | [11] 49.8 µM | [12] 21.4 µM | [14] 14.5 µM | [15] 23.1 µM | [16] 89.9 µM | [17] 19 µM | [18] 30.8 µM | [19] 55.6 µM | [20] 71.1 µM | [21] 58.7 µM | [22] > 100 µM | [23] > 100 µM | [24] 16.7 µM | [25] > 100 µM | [26] > 100 µM | [27] > 100 µM | [28] 27.4 µM | [29] 21.7 µM | [30] 17.3 µM | [31] > 100 µM | [32] 23.8 µM | [33] 40.1 µM | [34] 53.7 µM | [35] 22.3 µM | [36] 50 µM | [37] 50 µM | [38] 46.8 µM | [39] 2.92 µM | [40] 49.3 µM | [41] 28.2 µM | [42] 9.79 µM | [43] > 100 µM | [44] 17.8 µM | [45] 69.3 µM | [46] 49.4 µM | [47] > 100 µM | [48] > 100 µM | [49] 41.4 µM | [50] 4.92 µM

O=C(Nc1nc2ccc([N+](=O)[O-])cc2[n+]([O-])n1)C(F)(F)F
inactive: [1] 21 µM | [2] > 10 µM | [51] 62.4 µM | [4] 26.5 µM | [5] 18.7 µM | [6] 94.2 µM | [7] 27.9 µM | [8] 30.2 µM | [9] 12.5 µM | [52] 12.9 µM | [11] 29.6 µM | [53] 15 µM | [12] 20.7 µM | [54] 45.4 µM | [14] 56.1 µM | [15] 4.65 µM | [55] 18 µM | [16] 41.8 µM | [17] 26.2 µM | [18] 17.6 µM | [56] 46.2 µM | [19] 37.9 µM | [20] 47.2 µM | [21] 44.2 µM | [57] 23.3 µM | [22] 49.8 µM | [23] 22 µM | [24] 29.5 µM | [25] 24.6 µM | [26] 49.8 µM | [28] 20 µM | [29] 16.9 µM | [58] 21 µM | [30] 20 µM | [31] 29.4 µM | [32] 19.8 µM | [34] 14.3 µM | [35] 35.2 µM | [36] 49.8 µM | [37] 37.3 µM | [38] 40.8 µM | [39] 32.4 µM | [40] 37.6 µM | [41] 29.1 µM | [42] 26.3 µM | [43] 54.8 µM | [44] 21.3 µM | [45] 8.02 µM | [46] 36.1 µM | [47] 57.3 µM | [48] 26.9 µM | [49] 28.2 µM | [50] 24.4 µM
16.6 µM: [13]

Cc1cn(C2CC(SCCO)C(CO)O2)c(=O)[nH]c1=O (centres undefined)
inactive: [1] > 100 µM | [2] > 100 µM | [51] > 100 µM | [3] > 100 µM | [4] > 100 µM | [5] > 100 µM | [6] > 100 µM | [7] > 100 µM | [8] > 100 µM | [10] > 100 µM | [52] > 100 µM | [11] > 100 µM | [53] > 100 µM | [12] > 100 µM | [54] > 100 µM | [14] > 100 µM | [15] > 100 µM | [55] > 100 µM | [16] > 100 µM | [17] > 100 µM | [18] > 100 µM | [56] > 100 µM | [19] > 100 µM | [20] > 100 µM | [57] > 100 µM | [22] > 100 µM | [23] > 100 µM | [24] > 100 µM | [25] > 100 µM | [26] > 100 µM | [27] > 100 µM | [28] > 100 µM | [29] > 100 µM | [58] > 100 µM | [30] > 100 µM | [31] > 100 µM | [32] > 100 µM | [34] > 100 µM | [35] > 100 µM | [36] > 100 µM | [37] > 100 µM | [38] > 100 µM | [39] > 100 µM | [40] > 100 µM | [41] > 100 µM | [42] > 100 µM | [43] > 100 µM | [44] > 100 µM | [45] > 100 µM | [46] > 100 µM | [47] > 100 µM | [48] > 100 µM | [49] > 100 µM | [50] > 100 µM
> 100 µM: [13]
